The text below walks through data of US8338582B2, “Anti-HIV immunogens and methods for inducing an immune response” (Fundacao de Amparo a Pesquisa do Estado de Sao Paulo, priority 2005, dated 2012).

The experiment deals with peripheral blood mononuclear cells from HIV-1 seronegative individuals. Particulars: for IFN-γ spots/10^6 PBMC, Average (AV): average of 8 seronegative individuals; for IFN-γ spots/10^6 PBMC, Average (AV) / IFN-γ spots/10^6 PBMC: peptide 5 μM; for IFN-γ spots/10^6 PBMC, AV + 3SD: average plus 3 standard deviations, 8 seronegative individuals. As for the experimental part:
Step d) is achieved by synthesizing the peptides representing the epitopes of the present invention, followed by ELISPOT assay to detect IFN-γ-producing cells. For the purposes of the present invention, the positivity cutoff value used is ≧30 SFC IFN-γ/10^6 PBMC, calculated based on the levels of responses of HIV-1 seronegative patients
Synthetic peptide stocks were diluted to 25 mg/mL in dimethylsulphoxide, followed by ELISPOT assays for detection of IFN-γ-producing cells in response to the epitopes using peripheral blood mononuclear cells (PBMC) in 34 HIV-1+ patients of several clinical groups, long-term nonprogressors (LTNP), reconsituted, partial controllers, and progressors. Each epitope was tested in a concentration of 5 μM. The cryopreserved cells were maintained in culture for 16 hours, placed on plates in the presence of the epitopes, incubated for a further 18 hours, washed and ELISPOT plates were developed for the identification of spot-forming cells/Interferon-γ-producing cells (IFN-γ SFC), which were then counted in an automated counter (Zeiss KS ELISpot/Axioplan 2).

Read-outs that look alike come from different tables or passages of the source.

As to SELYLYKVVKIEPLGVAP [env 5], the “IFN-γ spots/10^6 PBMC, Average (AV)” value was 0.6 spots/10^6 PBMC and the “IFN-γ spots/10^6 PBMC, AV + 3SD” value stood at 5.9 spots/10^6 PBMC. In addition, the “IFN-γ spots/10^6 PBMC” value (seronegative individual C#01) is listed as 0 spots/10^6 PBMC. Also, the “IFN-γ spots/10^6 PBMC” value (seronegative individual C#02) was found to be 0 spots/10^6 PBMC. Further, the “IFN-γ spots/10^6 PBMC” value (seronegative individual C#03) is on record as 5 spots/10^6 PBMC. The “IFN-γ spots/10^6 PBMC” value (seronegative individual C#04) is 0 spots/10^6 PBMC. For the same sequence, where the note is “seronegative individual C#05”, the “IFN-γ spots/10^6 PBMC” value was 0 spots/10^6 PBMC. Moreover, the “IFN-γ spots/10^6 PBMC” value (seronegative individual C#06) turned out to be 0 spots/10^6 PBMC. Further, the “IFN-γ spots/10^6 PBMC” value (seronegative individual C#07) is reported as 0 spots/10^6 PBMC. For the same sequence, the “IFN-γ spots/10^6 PBMC” value (seronegative individual C#08) is recorded as 0 spots/10^6 PBMC.

For NTSYRLISCNTSVI [env 4], the “IFN-γ spots/10^6 PBMC, Average (AV)” value is 5.2 spots/10^6 PBMC and the “IFN-γ spots/10^6 PBMC, AV + 3SD” value stood at 24.6 spots/10^6 PBMC. For the same sequence, where the note is “seronegative individual C#01”, the “IFN-γ spots/10^6 PBMC” value was determined as 0 spots/10^6 PBMC. For the setting “seronegative individual C#02”, the “IFN-γ spots/10^6 PBMC” value is on record as 7 spots/10^6 PBMC. Besides, the “IFN-γ spots/10^6 PBMC” value (seronegative individual C#03) was 15 spots/10^6 PBMC. In addition, where the note is “seronegative individual C#04”, the “IFN-γ spots/10^6 PBMC” value is recorded as 2 spots/10^6 PBMC. Also, the “IFN-γ spots/10^6 PBMC” value (seronegative individual C#05) is recorded as 3 spots/10^6 PBMC. Further, the “IFN-γ spots/10^6 PBMC” value (seronegative individual C#06) turned out to be 0 spots/10^6 PBMC. Further, where the note is “seronegative individual C#07”, the “IFN-γ spots/10^6 PBMC” value came to 0 spots/10^6 PBMC. Besides, the “IFN-γ spots/10^6 PBMC” value (seronegative individual C#08) worked out at 15 spots/10^6 PBMC.

With TMLLGMLMICSAA [env 2], the “IFN-γ spots/10^6 PBMC, Average (AV)” value turned out to be 3.4 spots/10^6 PBMC and the “IFN-γ spots/10^6 PBMC, AV + 3SD” value amounted to 19.7 spots/10^6 PBMC. In addition, where the note is “seronegative individual C#01”, the “IFN-γ spots/10^6 PBMC” value is on record as 0 spots/10^6 PBMC. Moreover, the “IFN-γ spots/10^6 PBMC” value (seronegative individual C#02) was found to be 7 spots/10^6 PBMC. Besides, the “IFN-γ spots/10^6 PBMC” value (seronegative individual C#03) is listed as 5 spots/10^6 PBMC. The “IFN-γ spots/10^6 PBMC” value (seronegative individual C#04) came out at 0 spots/10^6 PBMC. Under “seronegative individual C#05”, the “IFN-γ spots/10^6 PBMC” value is listed as 0 spots/10^6 PBMC. Further, the “IFN-γ spots/10^6 PBMC” value (seronegative individual C#06) is 0 spots/10^6 PBMC. For the same sequence, the “IFN-γ spots/10^6 PBMC” value (seronegative individual C#07) is listed as 0 spots/10^6 PBMC. In addition, the “IFN-γ spots/10^6 PBMC” value (seronegative individual C#08) was determined as 15 spots/10^6 PBMC.

On to DKELYPLASLRSLFG [gag 4], for which the “IFN-γ spots/10^6 PBMC, Average (AV)” value stood at 3.7 spots/10^6 PBMC and the “IFN-γ spots/10^6 PBMC, AV + 3SD” value was 17.4 spots/10^6 PBMC. Besides, the “IFN-γ spots/10^6 PBMC” value (seronegative individual C#01) is listed as 0 spots/10^6 PBMC. For the same sequence, the “IFN-γ spots/10^6 PBMC” value (seronegative individual C#02) is recorded as 0 spots/10^6 PBMC. For the same sequence, the “IFN-γ spots/10^6 PBMC” value (seronegative individual C#03) came out at 5 spots/10^6 PBMC. Also, the “IFN-γ spots/10^6 PBMC” value (seronegative individual C#04) was 12 spots/10^6 PBMC. In addition, for the setting “seronegative individual C#05”, the “IFN-γ spots/10^6 PBMC” value was 8 spots/10^6 PBMC. In addition, the “IFN-γ spots/10^6 PBMC” value (seronegative individual C#06) was 0 spots/10^6 PBMC. Further, for the setting “seronegative individual C#07”, the “IFN-γ spots/10^6 PBMC” value amounted to 0 spots/10^6 PBMC. Under “seronegative individual C#08”, the “IFN-γ spots/10^6 PBMC” value was determined as 5 spots/10^6 PBMC.

VLEWRFDSRLAFHHV [nef 1]: the “IFN-γ spots/10^6 PBMC, Average (AV)” value came to 4.4 spots/10^6 PBMC and the “IFN-γ spots/10^6 PBMC, AV + 3SD” value is 17.7 spots/10^6 PBMC. For the same sequence, the “IFN-γ spots/10^6 PBMC” value (seronegative individual C#01) was 0 spots/10^6 PBMC. Besides, the “IFN-γ spots/10^6 PBMC” value (seronegative individual C#02) stood at 3 spots/10^6 PBMC. Further, the “IFN-γ spots/10^6 PBMC” value (seronegative individual C#03) is 7 spots/10^6 PBMC. The “IFN-γ spots/10^6 PBMC” value (seronegative individual C#04) came out at 12 spots/10^6 PBMC. In addition, the “IFN-γ spots/10^6 PBMC” value (seronegative individual C#05) is 8 spots/10^6 PBMC. Also, the “IFN-γ spots/10^6 PBMC” value (seronegative individual C#06) came out at 0 spots/10^6 PBMC. Further, the “IFN-γ spots/10^6 PBMC” value (seronegative individual C#07) was 0 spots/10^6 PBMC. Besides, the “IFN-γ spots/10^6 PBMC” value (seronegative individual C#08) came to 5 spots/10^6 PBMC.

As to GKIILVAVHVASGYI [pol 3], the “IFN-γ spots/10^6 PBMC, Average (AV)” value is reported as 0.2 spots/10^6 PBMC and the “IFN-γ spots/10^6 PBMC, AV + 3SD” value is listed as 2.4 spots/10^6 PBMC. The “IFN-γ spots/10^6 PBMC” value (seronegative individual C#01) was found to be 0 spots/10^6 PBMC. For the same sequence, the “IFN-γ spots/10^6 PBMC” value (seronegative individual C#02) was 2 spots/10^6 PBMC. Also, the “IFN-γ spots/10^6 PBMC” value (seronegative individual C#03) is on record as 0 spots/10^6 PBMC. Moreover, where the note is “seronegative individual C#04”, the “IFN-γ spots/10^6 PBMC” value came out at 0 spots/10^6 PBMC. Moreover, the “IFN-γ spots/10^6 PBMC” value (seronegative individual C#05) came out at 0 spots/10^6 PBMC. Besides, the “IFN-γ spots/10^6 PBMC” value (seronegative individual C#06) is 0 spots/10^6 PBMC. For the same sequence, the “IFN-γ spots/10^6 PBMC” value (seronegative individual C#07) is on record as 0 spots/10^6 PBMC. For the same sequence, the “IFN-γ spots/10^6 PBMC” value (seronegative individual C#08) is given as 0 spots/10^6 PBMC.

Take SPEVIPMFSALSE [gag 2]: the “IFN-γ spots/10^6 PBMC, Average (AV)” value stood at 0.9 spots/10^6 PBMC and the “IFN-γ spots/10^6 PBMC, AV + 3SD” value is 6.3 spots/10^6 PBMC. Further, the “IFN-γ spots/10^6 PBMC” value (seronegative individual C#01) is recorded as 0 spots/10^6 PBMC. Besides, the “IFN-γ spots/10^6 PBMC” value (seronegative individual C#02) is reported as 2 spots/10^6 PBMC. The “IFN-γ spots/10^6 PBMC” value (seronegative individual C#03) turned out to be 0 spots/10^6 PBMC. Also, the “IFN-γ spots/10^6 PBMC” value (seronegative individual C#04) amounted to 0 spots/10^6 PBMC. Further, the “IFN-γ spots/10^6 PBMC” value (seronegative individual C#05) is listed as 0 spots/10^6 PBMC. In addition, the “IFN-γ spots/10^6 PBMC” value (seronegative individual C#06) is 0 spots/10^6 PBMC. Further, the “IFN-γ spots/10^6 PBMC” value (seronegative individual C#07) turned out to be 0 spots/10^6 PBMC. The “IFN-γ spots/10^6 PBMC” value (seronegative individual C#08) came out at 5 spots/10^6 PBMC.
